In patent US10220091B2, “Combination treatments with sonic hedgehog inhibitors” (The General Hospital Corporation, priority 2013, dated 2019):

Key:
melanoma cells = test: Overcoming BRAF-I resistance mediated by PDGFRβ upregulation; assay type: cell-based; settings: as reported and as found by the applicant
[1] = system: Colo38, Colo38R, M21, M21R and TPF-10-741 cells; test: MTT dose titration of PDGFRα-I; assay type: cell-based; settings: Homo sapiens; dose titration experiment, MTT assay, the 5 cell lines; read-out: IC50 doses
Description: MTT assay was carried out as reported elsewhere^2. […] All experiments were performed three independent times in triplicates.
A dose titration experiment established the dose of PDGFRα-I to be combined with vemurafenib in the 5 cell lines.

p-ERK = test: Western blot of cell lysates, p-ERK; settings: Colo38R, M21R and TPF-10-741 cells; vemurafenib 1 μM, sunitinib 3 μM, imatinib 20 μM
Description: A. Following an incubation at indicated time points at 37° C. cells were harvested and lysed. Cell lysates were analyzed by western blot with the indicated mAbs. β-actin-was used as a loading control. B. Following a 48 h incubation at 37° C. cells were harvested and lysed. Cell lysates were analyzed by western blot with the indicated mAbs. β-actin or Calnexin were used as a loading control. The results presented are representative of the results obtained in three independent experiments.
A. M21R and TPF-10-741 cells were transduced with PDGFRα-specific shRNA (#4) or with GFP-shRNA, used as a control, lentiviral particles. […] Following a three day incubation at 37° C. cells were harvested and lysed. Cell lysates were analyzed by western blot with the indicated mAbs. β-actin was used as a loading control. […] Cell proliferation was determined by MTT assay following a three day incubation at 37° C. Percentage of cell proliferation was calculated as the ratio of treated cells to untreated GFP-shRNA transduced cells. Data are expressed as mean±SD of the results obtained in three independent experiments. *** indicates P<0.01.
Following an incubation at indicated time points at 37° C. cells were harvested and lysed. Cell lysates were analyzed by western blot with the indicated mAbs. β-actin was used as a loading control. […]

SMILES | IC50 [1] | also measured
Cc1ccc(NC(=O)c2ccc(CN3CCN(C)CC3)cc2)cc1Nc1nccc(-c2cccnc2)n1 [imatinib] | – | ability to overcome BRAF-I resistance mediated by PDGFRβ upregulation (melanoma cells): not able to overcome
CC1(COc2ccc3c(c2)ncn3-c2ccc3cccc(N4CCC(N)CC4)c3n2)COC1 [crenolanib] | 1000 nM | –
CCN(CC)CCNC(=O)c1c(C)[nH]c(/C=C2\C(=O)Nc3ccc(F)cc32)c1C [sunitinib] | 2000 nM | –
CCCS(=O)(=O)Nc1ccc(F)c(C(=O)c2c[nH]c3ncc(-c4ccc(Cl)cc4)cc23)c1F [vemurafenib] | – | p-ERK levels (p-ERK): not inhibited
